According to ChEMBL document CHEMBL5257097, “An Isomer of Galidesivir That Potently Inhibits Influenza Viruses and Members of the Bunyavirales Order” (ACS Med Chem Lett, 2023):

Assays:
[1] = (§1) Selectivity index, ratio of CC50 for cytotoxicity against African green monkey Vero 76 cells infected with MERS-CoV assessed as reduction in cell viability by visual analysis to EC50 for antiviral activity against MERS-CoV infected in African green monkey Vero 76 cells assessed as reduction in virus-induced cytopathic effect by visual analysis; format: toxicity, cell-based; conditions: read-out: Ratio CC50/EC50
[2] = as §1, with “neutral red dye based” for “visual”; format: toxicity; conditions: read-out: Ratio CC50/EC50
Influenza A virus [3] = test: Antiviral activity against Influenza A virus H3N2 infected in dog MDCK cells assessed as inhibition of viral replication measured after 15 to 30 mins by visual analysis; format: functional, organism-based
Influenza A virus [4] = test: Antiviral activity against Influenza A virus H3N2 infected in dog MDCK cells assessed as inhibition of viral replication measured after 15 to 30 mins by neutral red dye based analysis; format: functional, organism-based
Influenza A virus [5] = test: Antiviral activity against Influenza A virus H7N9 infected in dog MDCK cells assessed as inhibition of viral replication measured after 15 to 30 mins by visual analysis; format: functional, organism-based
Influenza B virus [6] = test: Antiviral activity against Influenza B virus infected in dog MDCK cells assessed as inhibition of viral replication measured after 15 to 30 mins by visual analysis; format: functional, organism-based
Influenza B virus [7] = test: Antiviral activity against Influenza B virus infected in dog MDCK cells assessed as inhibition of viral replication measured after 15 to 30 mins by neutral red dye based analysis; format: functional, organism-based
[8] = Cytotoxicity against dog MDCK cells infected with Influenza A virus H3N2 assessed as reduction in cell viability by visual analysis; format: toxicity, cell-based, Canis lupus familiaris
[9] = Cytotoxicity against dog MDCK cells infected with Influenza B virus assessed as reduction in cell viability by neutral red dye based analysis; format: toxicity, Canis lupus familiaris
[10] = (§2) Selectivity index, ratio of CC50 for cytotoxicity against dog MDCK cells infected with Influenza A virus H1N1 assessed as reduction in cell viability by neutral red dye based analysis to EC50 for antiviral activity against Influenza A virus H1N1 infected in dog MDCK cells assessed as inhibition of viral replication by neutral red dye based analysis; format: toxicity; conditions: read-out: Ratio CC50/EC50
[11] = as §2, with “B” for “A”, “virus” for “virus H1N1”, “visual” for “neutral red dye based”; format: toxicity, cell-based; conditions: read-out: Ratio CC50/EC50
Influenza A virus [12] = test: Antiviral activity against Influenza A virus H1N1 infected in dog MDCK cells assessed as reduction in virus yield measured after 3 days by visual analysis; format: functional; conditions: 72 h, time 3 day
Influenza B virus [13] = test: Antiviral activity against Influenza B virus infected in dog MDCK cells assessed as reduction in virus yield measured after 3 days by visual analysis; format: functional; conditions: 72 h, time 3 day
[14] = as §2, with “H3N2” for “H1N1”, “visual” for “neutral red dye based”, “EC90” for “EC50”, “reduction in” for “inhibition of”, “yield” for “replication”; format: toxicity, cell-based
[15] = as §2, with “B” for “A”, “virus” for “virus H1N1”, “visual” for “neutral red dye based”, “EC90” for “EC50”, “reduction in” for “inhibition of”, “yield” for “replication”; format: toxicity, cell-based
Junin virus [16] = test: Antiviral activity against Junin virus infected in African green monkey Vero E6 cells assessed as inhibition of viral replication by visual analysis; format: functional, organism-based; conditions: Mammarenavirus juninense, Vero C1008
Junin virus [17] = test: Antiviral activity against Junin virus infected in African green monkey Vero E6 cells assessed as inhibition of viral replication by neutral red dye based analysis; format: functional, organism-based; conditions: Mammarenavirus juninense, Vero C1008
La Crosse virus = test: Antiviral activity against La Crosse virus infected in African green monkey Vero E6 cells assessed as inhibition of viral replication by neutral red dye based analysis; format: functional, organism-based; conditions: Vero C1008
Pichinde virus = test: Antiviral activity against Pichinde virus infected in African green monkey Vero cells assessed as inhibition of viral replication by visual analysis; format: functional, organism-based
Tacaribe virus = test: Antiviral activity against Tacaribe virus infected in African green monkey Vero cells assessed as inhibition of viral replication by visual analysis; format: functional, organism-based; conditions: Mammarenavirus tacaribeense
[18] = test system: Orthohantavirus maporalense; test: Antiviral activity against Maporal virus infected in African green monkey Vero E6 cells assessed as reduction in viral yield measured for 3 days; format: functional; conditions: Vero C1008, 72 h, time 3 day
[19] = test system: Severe fever with thrombocytopenia syndrome virus; test: Antiviral activity against Severe fever with thrombocytopenia syndrome virus infected in African green monkey Vero E6 cells assessed as reduction in viral yield measured for 3 days; format: functional; conditions: Vero C1008, 72 h, time 3 day
[20] = Cytotoxicity against African green monkey Vero E6 cells infected with Rift Valley fever virus assessed as reduction in cell viability; format: toxicity, cell-based, Vero C1008; conditions: chlorocebus sabaeus
[21] = Cytotoxicity against African green monkey Vero E6 cells infected with Maporal virus assessed as reduction in cell viability; format: toxicity, cell-based, Vero C1008; conditions: chlorocebus sabaeus
[22] = Cytotoxicity against African green monkey Vero 76 cells infected with Punta Toro virus assessed as reduction in cell viability by visual analysis; format: toxicity, cell-based; conditions: chlorocebus sabaeus
[23] = Cytotoxicity against African green monkey Vero 76 cells infected with Punta Toro virus assessed as reduction in cell viability by neutral red dye based analysis; format: toxicity; conditions: chlorocebus sabaeus
[24] = Cytotoxicity against African green monkey Vero cells infected with Tacaribe virus assessed as reduction in cell viability by neutral red dye based analysis; format: toxicity; conditions: chlorocebus sabaeus
[25] = Selectivity index, ratio of CC50 for cytotoxicity against African green monkey Vero E6 cells infected with Lymphocytic choriomeningitis virus assessed as reduction in cell viability to EC90 for antiviral activity against Lymphocytic choriomeningitis virus infected in African green monkey Vero E6 cells assessed as reduction in viral yield; format: toxicity, cell-based, Vero C1008
[26] = (§3) Selectivity index, ratio of CC50 for cytotoxicity against African green monkey Vero E6 cells infected with Maporal virus assessed as reduction in cell viability to EC90 for antiviral activity against Maporal virus infected in African green monkey Vero E6 cells assessed as reduction in viral yield; format: toxicity, cell-based, Vero C1008
[27] = as §3, with “Oropouche” for “Maporal”, “viability by visual analysis” for “viability”, “EC50” for “EC90”, “replication by visual analysis” for “yield”; format: toxicity, cell-based, Vero C1008; conditions: read-out: Ratio CC50/EC50
[28] = as §2, with “African green monkey Vero” for “dog MDCK”, “Tacaribe” for “Influenza A”, “virus” for “virus H1N1”, “reduction in” for “inhibition of”; format: toxicity; conditions: read-out: Ratio CC50/EC50
[29] = Toxicity in BALB/c mouse infected with influenza A/Ca/04/09 (H1N1) assessed as animal survival at 10 to 300 mg/kg, ip measured every day for 6 days; format: organism-based; conditions: in vivo, 144 h, dose 10-300 mg/kg, time 6 day
[30] = Toxicity in BALB/c mouse infected with influenza A/Ca/04/09 (H1N1) assessed as mortality at 30 mg/kg, ip measured every day for 6 days; format: organism-based; conditions: in vivo, time 6 day, read-out: Activity
[31] = Toxicity in BALB/c mouse infected with influenza A/Ca/04/09 (H1N1) assessed as mortality at 300 mg/kg, ip measured every day for 6 days; format: organism-based; conditions: in vivo, time 6 day, read-out: Activity
Ebolavirus = test: Antiviral activity against Ebola virus infected in human HeLa cells assessed as reduction in viral cytopathic effect; format: functional, organism-based; conditions: Orthoebolavirus
Sudan ebolavirus = test: Antiviral activity against SUDV infected in human HeLa cells assessed as reduction in viral cytopathic effect; format: functional, organism-based
Influenza B virus [32] = test: Antiviral activity against Influenza B virus infected in dog MDCK cells assessed as reduction in viral cytopathic effect; format: functional, organism-based
[33] = Cytotoxicity against African green monkey Vero cells infected with DENV-2 assessed as reduction in cell viability by visual assay; format: toxicity, cell-based; conditions: chlorocebus sabaeus
[34] = Cytotoxicity against vervet monkey MA-104 cells infected with MERS-CoV assessed as reduction in cell viability by neutral red dye based assay; format: toxicity; conditions: cercopithecus pygerythrus
[35] = as §1, with “vervet” for “African green”, “MA-104” for “Vero 76”, “neutral red dye based” for “visual”; format: toxicity; conditions: read-out: Ratio CC50/EC50

For `Nc1ncnn2c([C@@H]3N[C@H](CO)[C@@H](O)[C@H]3O)ccc12`, which selectivity ratio [1] is on record?
Its selectivity ratio is 31.

What about the selectivity ratio [2] of the same molecule?
Its selectivity ratio is 15.

And the EC50 (Influenza A virus [3])?
Its EC50 is 320 nM.

What about the EC50 (Influenza A virus [4]) of the same molecule?
Its EC50 is 310 nM.

What about the EC50 (Influenza A virus [5]) of the same molecule?
The EC50 was 420 nM.

And the EC50 (Influenza B virus [6])?
The EC50 was 320 nM.

What about the EC50 (Influenza B virus [7]) of the same molecule?
Its EC50 is 260 nM.

And the CC50 [8]?
The CC50 was 12000 nM.

What about the CC50 [9] of the same molecule?
Its CC50 is 9800 nM.

And the selectivity ratio [10]?
The selectivity ratio was 44.

What about the selectivity ratio [11] of the same molecule?
Its selectivity ratio is 38.

And the EC90 (Influenza A virus [12])?
The EC90 was 100 nM.

And the EC90 (Influenza B virus [13])?
The EC90 was 300 nM.

And the selectivity ratio [14]?
Its selectivity ratio is 64.

And the selectivity ratio [15]?
Its selectivity ratio is 50.

What about the EC50 (Junin virus [16]) of the same molecule?
Its EC50 is 540 nM.

And the EC50 (Junin virus [17])?
Its EC50 is 280 nM.

And the EC50 (La Crosse virus)?
Its EC50 is < 100 nM.

What about the EC50 (Pichinde virus) of the same molecule?
The EC50 was 380 nM.

And the EC50 (Tacaribe virus)?
Its EC50 is 370 nM.

And the EC90 [18]?
Its EC90 is 860 nM.

And the EC90 [19]?
The EC90 was 220 nM.

And the CC50 [20]?
Its CC50 is 8600 nM.

What about the CC50 [21] of the same molecule?
The CC50 was 13000 nM.

What about the CC50 [22] of the same molecule?
Its CC50 is 13000 nM.

What about the CC50 [23] of the same molecule?
The CC50 was 10000 nM.

And the CC50 [24]?
Its CC50 is 6600 nM.

And the selectivity ratio [25]?
The selectivity ratio was 80.

And the selectivity ratio [26]?
Its selectivity ratio is 15.

And the selectivity ratio [27]?
Its selectivity ratio is 62.

What about the selectivity ratio [28] of the same molecule?
Its selectivity ratio is 20.

What about the Activity [29] of the same molecule?
Its Activity is “Non-Toxic”.

And the mortality at 144 h [30]?
Its mortality at 144 h is 15%.

And the mortality at 144 h [31]?
The mortality at 144 h was 100%.

Which EC50 (Ebolavirus) does the source give for `Nc1ncnc2c([C@@H]3N[C@H](CO)[C@@H](O)[C@H]3O)c[nH]c12` [GALIDESIVIR] here?
The EC50 was 3000 nM.

What about the EC50 (Sudan ebolavirus) of the same molecule?
Its EC50 is 3000 nM.

And the EC50 (Influenza B virus [32])?
The EC50 was 1000 nM.

What about the CC50 [33] of the same molecule?
The CC50 was > 100000 nM.

And the CC50 [34]?
Its CC50 is > 100000 nM.

And the selectivity ratio [35]?
Its selectivity ratio is > 3.1.
